According to US7417156B2, “Orally active, antimalarial, anticancer, artemisinin-derived trioxane dimers” (Johns Hopkins University, priority 2002, dated 2008):

What was measured:
NCI/ADR-RES = assay: NCI 60 cell line panel screen (SRB); format: cell-based, human
IGROVI = assay: NCI 60 cell line panel screen (SRB); format: cell-based, human
M14 = assay: NCI 60 cell line panel screen (SRB); format: cell-based, human
NCI-H522 = assay: NCI 60 cell line panel screen (SRB); format: cell-based, human
MCF7 = assay: NCI 60 cell line panel screen (SRB); format: cell-based, human
UO-31 = assay: NCI 60 cell line panel screen (SRB); format: cell-based, human
HT29 = assay: NCI 60 cell line panel screen (SRB); format: cell-based, human; settings: HT29 (Colon Cancer); TGI: PG=0
A549/ATCC = assay: NCI 60 cell line panel screen (SRB); format: cell-based, human
[1] = tested on: chloroquine-sensitive P. falciparum (NF54); assay: Antimalarial activity in vitro, [3H]hypoxanthine incorporation; format: cell-based; settings: Table I; NF54 strain; read-out: IC50
60 cell line panel = format: cell-based
HCT-15 = assay: NCI 60 cell line panel screen (SRB); format: cell-based, human; settings: HCT-15 (Colon Cancer); TGI: PG=0
BT-549 = assay: NCI 60 cell line panel screen (SRB); format: cell-based, human; settings: BT-549 (Breast Cancer); TGI: PG=0
PC-3 = assay: NCI 60 cell line panel screen (SRB); format: cell-based, human; settings: PC-3 (Prostate Cancer); TGI: PG=0
MALME-3M = assay: NCI 60 cell line panel screen (SRB); format: cell-based, human; settings: MALME-3M (Melanoma); TGI: PG=0
HCT-116 = assay: NCI 60 cell line panel screen (SRB); format: cell-based, human; settings: HCT-116 (Colon Cancer); TGI: PG=0
MDA-MB-435 = assay: NCI 60 cell line panel screen (SRB); format: cell-based, human
NCI-H322M = format: cell-based
[2] = mean value over the 60 cell line panel

For `CC1CCC2C(C)C(CC(COCC(=O)O)CC3OC4OC5(C)CCC6C(C)CCC(C3C)C46OO5)OC3OC4(C)CCC1C32OO4` (centres unmarked) [Compound 12b, bis-trioxane O-acetic acid], the Log10GI50 (NCI/ADR-RES; Breast Cancer, NCI/ADR-RES) was −6.45, the Log10TGI50 (NCI/ADR-RES; NCI/ADR-RES (Breast Cancer), TGI: PG=0) was greater than −4.30 log10M and the Log10TGI50 (IGROVI; IGROVI (Ovarian Cancer), TGI: PG=0) was greater than −4.30 log10M. For the same compound, the Log10GI50 (IGROVI; Ovarian Cancer, IGROVI) was −5.06, the Log10TGI50 (M14; M-14 (Melanoma), TGI: PG=0) was greater than −4.30 log10M and the Log10GI50 (M14; Melanoma, M14) was −6.68. The Log10TGI50 (NCI-H522; NCI-H522 (Non-Small Cell Lung Cancer), TGI: PG=0) was greater than −4.30 log10M, the Log10GI50 (NCI-H522; Non-Small Cell Lung Cancer, NCI-H522) was greater than −4.30 and the Log10GI50 (MCF7; Breast Cancer, MCF7) was −7.37. The Log10TGI50 (MCF7; MCF7 (Breast Cancer), TGI: PG=0) was greater than −4.30 log10M, the Log10GI50 (UO-31; Renal Cancer, UO-31) was −5.84 and the Log10TGI50 (UO-31; UO-31 (Renal Cancer), TGI: PG=0) was greater than −4.30 log10M. It also gave a Log10TGI50 (HT29) greater than −4.30 log10M, a Log10TGI50 (A549/ATCC; A549/ATCC (Non-Small Cell Lung Cancer), TGI: PG=0) greater than −4.30 log10M and a Log10GI50 (A549/ATCC; Non-Small Cell Lung Cancer, A549/ATCC) greater than −4.30. For the same compound, the IC50 [1] was 3.2 nM, the “Log10GI50 Delta” value (60 cell line panel) was 1.57 and the “Log10GI50 Range” value (60 cell line panel) was 4.00. For the same compound, the “Log10LC50 Delta” value (60 cell line panel; 60 cell line panel) was 0.70, the “Log10LC50 Range” value (60 cell line panel; 60 cell line panel) was 0.72 and the “Log10TGI50 Delta” value (60 cell line panel; 60 cell line panel) was 3.49. The “Log10TGI50 Range” value (60 cell line panel; 60 cell line panel) was 4.00, the “growth inhibition in words” value (60 cell line panel; colon cancer KM12, ovarian cancer OVCAR 3, breast cancer MDA-MB-435) was “selectively and strong inhibitory” and the “Log10GI50 MG MID” value (60 cell line panel; mean over panel) was −6.73. The “Log10LC50 MG MID” value (60 cell line panel; [2]) was −4.32 log10M, the “Log10TGI50 MG MID” value (60 cell line panel; [2]) was −4.81 log10M and the Log10TGI50 (HCT-15) was −5.00 log10M. It also gave a Log10TGI50 (BT-549) greater than −4.30 log10M, a Log10TGI50 (PC-3) of −4.92 log10M and a Log10TGI50 (MALME-3M) of −6.40 log10M. The Log10TGI50 (HCT-116) was greater than −4.30 log10M, the Log10GI50 (MDA-MB-435; Breast Cancer, MDA-MB-435) was −6.97 and the Log10TGI50 (MDA-MB-435; MDA-MB-435 (Breast Cancer), TGI: PG=0) was greater than −4.30 log10M. It also gave a Log10TGI50 (NCI-H322M; NCI-H322M (Non-Small Cell Lung Cancer), TGI: PG=0) greater than −4.30 log10M and a Log10GI50 (NCI-H322M; Non-Small Cell Lung Cancer, NCI-H322M) of −5.03.
